Reference: ChEMBL document CHEMBL2424532, “Investigation of an F-18 oxytocin receptor selective ligand via PET imaging” (Bioorg Med Chem Lett, 2013)

Legend:
[1] = biological target: T1, Alpha-1A adrenergic receptor (Homo sapiens, UniProt P35348); assay: Binding affinity to human adrenergic alpha-1A receptor by competitive binding assay
T1 sequence (P35348 whole entry): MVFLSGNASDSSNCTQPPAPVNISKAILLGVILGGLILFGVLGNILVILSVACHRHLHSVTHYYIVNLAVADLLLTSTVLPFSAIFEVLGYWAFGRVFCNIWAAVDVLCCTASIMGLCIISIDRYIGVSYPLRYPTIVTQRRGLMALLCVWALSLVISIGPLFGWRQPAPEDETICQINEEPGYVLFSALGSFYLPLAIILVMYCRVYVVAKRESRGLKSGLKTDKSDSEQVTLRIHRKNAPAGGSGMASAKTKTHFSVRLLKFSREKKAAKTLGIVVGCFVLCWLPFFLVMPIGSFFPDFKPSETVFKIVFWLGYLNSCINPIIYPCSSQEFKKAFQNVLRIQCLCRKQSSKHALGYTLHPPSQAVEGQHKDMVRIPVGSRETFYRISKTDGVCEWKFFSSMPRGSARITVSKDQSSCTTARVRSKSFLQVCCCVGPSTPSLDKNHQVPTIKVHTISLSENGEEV

[2] = biological target: T2, Oxytocin receptor (Homo sapiens, UniProt P30559); assay: Binding affinity to human OTR by competitive binding assay
T2 sequence (P30559 whole entry): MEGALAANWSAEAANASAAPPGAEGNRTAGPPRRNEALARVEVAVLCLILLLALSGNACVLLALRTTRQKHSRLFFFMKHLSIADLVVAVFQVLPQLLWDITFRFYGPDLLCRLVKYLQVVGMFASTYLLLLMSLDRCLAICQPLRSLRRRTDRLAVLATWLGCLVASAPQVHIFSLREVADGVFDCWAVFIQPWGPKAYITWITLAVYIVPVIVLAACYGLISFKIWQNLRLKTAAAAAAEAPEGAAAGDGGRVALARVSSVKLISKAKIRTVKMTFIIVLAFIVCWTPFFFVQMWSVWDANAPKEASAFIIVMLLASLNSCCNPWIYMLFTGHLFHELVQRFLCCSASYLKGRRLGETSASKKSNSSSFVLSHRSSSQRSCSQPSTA

[3] = biological target: D(3) dopamine receptor (Homo sapiens, UniProt P35462); assay: Binding affinity to human dopamine D3 receptor by competitive binding assay
[4] = biological target: 5-hydroxytryptamine receptor 2B (Homo sapiens, UniProt P41595); assay: Binding affinity to human 5HT2B receptor by competitive binding assay
[5] = biological target: T3, Muscarinic acetylcholine receptor M4 (Homo sapiens, UniProt P08173); assay: Binding affinity to human muscarinic M4 receptor by competitive binding assay
T3 sequence (P08173 whole entry): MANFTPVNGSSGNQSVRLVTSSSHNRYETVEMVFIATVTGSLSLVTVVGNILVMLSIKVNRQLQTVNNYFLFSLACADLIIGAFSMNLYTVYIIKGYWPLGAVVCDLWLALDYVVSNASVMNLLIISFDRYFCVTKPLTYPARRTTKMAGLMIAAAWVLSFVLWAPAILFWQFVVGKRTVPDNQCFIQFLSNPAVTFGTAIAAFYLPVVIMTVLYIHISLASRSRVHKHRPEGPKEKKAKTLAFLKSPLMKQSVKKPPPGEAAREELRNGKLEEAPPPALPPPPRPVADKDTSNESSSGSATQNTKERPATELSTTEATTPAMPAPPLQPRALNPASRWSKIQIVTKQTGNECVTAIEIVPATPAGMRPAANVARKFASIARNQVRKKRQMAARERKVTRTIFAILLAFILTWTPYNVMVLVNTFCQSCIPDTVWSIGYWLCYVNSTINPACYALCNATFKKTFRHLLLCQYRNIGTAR

[6] = biological target: 5-hydroxytryptamine receptor 6 (Homo sapiens, UniProt P50406); assay: Binding affinity to human 5HT6 receptor by competitive binding assay
[7] = biological target: Serotonin (5-HT) receptor; assay: Binding affinity to human 5HTB receptor by competitive binding assay; assay type: protein assay
[8] = biological target: Vasopressin V1a receptor (Homo sapiens, UniProt P37288); assay: Binding affinity to human V1AR by competitive binding assay
[9] = biological target: Vasopressin V2 receptor (Homo sapiens, UniProt P30518); assay: Binding affinity to human V2R by competitive binding assay
[10] = biological target: T4, Vasopressin V1b receptor (Homo sapiens, UniProt P47901); assay: Binding affinity to human V1BR by competitive binding assay
T4 sequence (P47901 whole entry): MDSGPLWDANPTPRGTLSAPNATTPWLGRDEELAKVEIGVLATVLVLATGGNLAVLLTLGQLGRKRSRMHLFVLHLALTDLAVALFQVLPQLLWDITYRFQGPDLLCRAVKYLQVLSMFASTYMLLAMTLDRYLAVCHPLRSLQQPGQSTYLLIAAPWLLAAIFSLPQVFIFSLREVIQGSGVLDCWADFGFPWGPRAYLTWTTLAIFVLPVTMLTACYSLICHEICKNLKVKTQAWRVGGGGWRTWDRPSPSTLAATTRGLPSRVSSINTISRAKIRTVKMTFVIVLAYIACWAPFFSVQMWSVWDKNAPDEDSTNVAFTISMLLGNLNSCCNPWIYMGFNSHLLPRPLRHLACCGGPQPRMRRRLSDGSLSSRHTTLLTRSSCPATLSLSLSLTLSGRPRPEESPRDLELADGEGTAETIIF

[11] = biological target: 5-hydroxytryptamine receptor 1B (Homo sapiens, UniProt P28222); assay: Binding affinity to human 5HT1B receptor by competitive binding assay
[12] = test system: Brain; assay: Drug uptake in Sprague-Dawley rat brain at 280 uCi after 20 mins by PET analysis; assay type: ADME, tissue-based; conditions: in vivo
[13] = Drug uptake in cynomolgus monkey choroid plexus at 5.5 mCi after 2 hrs in presence of unlabeled compound administered 30 mins before tracer challenge; assay type: ADME, Macaca fascicularis; conditions: in vivo
[14] = Drug uptake in cynomolgus monkey choroid plexus at 5.5 mCi after 2 hrs in presence of unlabeled compound administered 45 mins before tracer challenge; assay type: ADME, Macaca fascicularis; conditions: in vivo
[15] = Drug uptake in cynomolgus monkey middle cerebral artery of cerebral cortex at 5.5 mCi up to 15 mins; assay type: ADME, tissue-based, Macaca fascicularis; conditions: in vivo, 0.25 h
[16] = test system: Brain; assay: Drug uptake in Sprague-Dawley rat brain at 280 uCi up to 20 mins by PET analysis; assay type: ADME, tissue-based; conditions: in vivo
[17] = Lipophilicity, log P of the compound at pH 7.4; assay type: physicochemical; conditions: buffer

Vasopressin V2 receptor, sequence (P30518 whole entry): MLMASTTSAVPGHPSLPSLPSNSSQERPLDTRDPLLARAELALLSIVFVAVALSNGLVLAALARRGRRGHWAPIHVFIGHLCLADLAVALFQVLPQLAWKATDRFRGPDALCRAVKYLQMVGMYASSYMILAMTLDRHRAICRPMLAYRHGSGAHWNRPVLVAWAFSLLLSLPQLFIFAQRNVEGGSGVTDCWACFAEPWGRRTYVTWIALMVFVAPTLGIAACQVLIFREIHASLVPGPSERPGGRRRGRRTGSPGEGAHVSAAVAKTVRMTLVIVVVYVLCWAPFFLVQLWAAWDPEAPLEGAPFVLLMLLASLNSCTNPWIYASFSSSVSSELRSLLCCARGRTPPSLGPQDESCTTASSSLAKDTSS
D(3) dopamine receptor, sequence (P35462 whole entry): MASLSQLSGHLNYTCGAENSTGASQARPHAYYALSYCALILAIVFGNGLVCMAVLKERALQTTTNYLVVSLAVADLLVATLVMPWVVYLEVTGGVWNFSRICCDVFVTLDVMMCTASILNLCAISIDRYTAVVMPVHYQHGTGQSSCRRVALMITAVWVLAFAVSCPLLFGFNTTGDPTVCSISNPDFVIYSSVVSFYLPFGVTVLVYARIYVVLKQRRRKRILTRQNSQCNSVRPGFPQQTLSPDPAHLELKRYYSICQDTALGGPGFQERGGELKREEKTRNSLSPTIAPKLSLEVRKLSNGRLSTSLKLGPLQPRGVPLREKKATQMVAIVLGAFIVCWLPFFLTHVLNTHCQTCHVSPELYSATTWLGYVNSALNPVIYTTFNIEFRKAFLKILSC
5-hydroxytryptamine receptor 6, sequence (P50406 whole entry): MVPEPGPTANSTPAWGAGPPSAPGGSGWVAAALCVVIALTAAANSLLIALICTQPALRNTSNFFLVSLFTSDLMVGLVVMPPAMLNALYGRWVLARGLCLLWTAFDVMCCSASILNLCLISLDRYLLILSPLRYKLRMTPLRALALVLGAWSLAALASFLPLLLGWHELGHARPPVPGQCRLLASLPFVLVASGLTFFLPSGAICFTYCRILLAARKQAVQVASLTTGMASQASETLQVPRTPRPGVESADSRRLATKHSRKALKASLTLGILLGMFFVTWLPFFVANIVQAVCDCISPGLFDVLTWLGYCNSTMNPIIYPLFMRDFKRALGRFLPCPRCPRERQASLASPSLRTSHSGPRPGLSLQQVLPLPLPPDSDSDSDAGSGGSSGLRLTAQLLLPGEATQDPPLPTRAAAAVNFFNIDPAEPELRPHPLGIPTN
5-hydroxytryptamine receptor 1B, sequence (P28222 whole entry): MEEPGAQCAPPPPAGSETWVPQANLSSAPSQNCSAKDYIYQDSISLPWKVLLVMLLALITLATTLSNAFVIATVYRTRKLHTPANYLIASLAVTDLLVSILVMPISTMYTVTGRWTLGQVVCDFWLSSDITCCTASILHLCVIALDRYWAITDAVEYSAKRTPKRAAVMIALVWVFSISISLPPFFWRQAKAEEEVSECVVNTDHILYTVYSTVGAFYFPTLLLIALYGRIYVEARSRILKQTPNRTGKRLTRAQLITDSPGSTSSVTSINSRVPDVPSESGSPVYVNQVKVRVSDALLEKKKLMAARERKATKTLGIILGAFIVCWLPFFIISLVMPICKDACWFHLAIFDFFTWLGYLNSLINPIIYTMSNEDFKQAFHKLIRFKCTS
Vasopressin V1a receptor, sequence (P37288 whole entry): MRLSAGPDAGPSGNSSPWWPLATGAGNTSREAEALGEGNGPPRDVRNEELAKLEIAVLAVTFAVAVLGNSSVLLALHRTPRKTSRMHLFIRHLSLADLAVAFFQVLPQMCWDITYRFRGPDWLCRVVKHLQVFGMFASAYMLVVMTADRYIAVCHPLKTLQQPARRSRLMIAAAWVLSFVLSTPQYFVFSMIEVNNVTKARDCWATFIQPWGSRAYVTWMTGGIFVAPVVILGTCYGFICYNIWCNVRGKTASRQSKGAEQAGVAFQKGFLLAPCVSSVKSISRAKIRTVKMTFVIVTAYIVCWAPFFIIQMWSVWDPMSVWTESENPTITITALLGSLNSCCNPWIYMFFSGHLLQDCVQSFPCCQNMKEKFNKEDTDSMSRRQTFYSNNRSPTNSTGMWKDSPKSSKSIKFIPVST
5-hydroxytryptamine receptor 2B, sequence (P41595 whole entry): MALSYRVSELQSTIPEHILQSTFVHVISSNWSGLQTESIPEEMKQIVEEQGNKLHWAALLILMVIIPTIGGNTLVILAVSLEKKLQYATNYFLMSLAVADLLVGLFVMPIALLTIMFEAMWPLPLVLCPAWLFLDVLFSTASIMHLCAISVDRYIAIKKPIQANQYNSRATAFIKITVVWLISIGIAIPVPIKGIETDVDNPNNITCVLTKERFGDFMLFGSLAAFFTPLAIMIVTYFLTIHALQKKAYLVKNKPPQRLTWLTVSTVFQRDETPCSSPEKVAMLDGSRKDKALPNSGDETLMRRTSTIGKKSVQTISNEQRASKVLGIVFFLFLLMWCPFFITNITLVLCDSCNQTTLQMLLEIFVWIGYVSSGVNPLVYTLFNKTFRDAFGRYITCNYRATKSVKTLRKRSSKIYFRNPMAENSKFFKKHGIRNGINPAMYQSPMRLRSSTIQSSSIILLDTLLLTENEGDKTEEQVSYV

Compound	Ki [1]	Ki [2]	Ki [3]	Ki [4]	Ki [5]	Ki [6]	Ki [7]	Ki [8]	Ki [9]	Ki [10]	Ki [11]	Drug uptake [12]	Drug uptake [13]	Drug uptake [14]	Drug uptake [15]	Drug uptake [16]	logD [17]
Cl.O=C(Cc1ccc(OC2CCNCC2)cc1OCCF)N1CCC(N2C(=O)CCc3ccccc32)CC1	80 nM	15 nM	6790 nM	500 nM	1270 nM	187 nM	1270 nM	5600 nM	8700 nM	> 10000 nM	700 nM						
O=C(Cc1ccc(OC2CCNCC2)cc1OCC[18F])N1CCC(N2C(=O)CCc3ccccc32)CC1												Not Active	Active	Active	Active	Active	1.57
CS(=O)(=O)N1CCC(Oc2ccc(CC(=O)N3CCC(N4C(=O)CCc5ccccc54)CC3)c(OCCF)c2)CC1										> 10000 nM							
